Data reported in ChEMBL document CHEMBL5506043, “A β-Carboline Derivate PAD4 Inhibitor Reshapes Neutrophil Phenotype and Improves the Tumor Immune Microenvironment against Triple-Negative Breast Cancer” (J Med Chem, 2024).

What was measured:
[1] = molecular target: Protein-arginine deiminase type-2 (Homo sapiens, UniProt Q9Y2J8); experiment: Inhibition of PAD2 (unknown origin) using Nalpha-benzoyl-L-arginine ethyl ester as substrate preincubated for 60 mins followed by substrate addition and measured after 90 mins by colorimetric analysis
Sequence of Protein-arginine deiminase type-2 (Q9Y2J8 whole entry): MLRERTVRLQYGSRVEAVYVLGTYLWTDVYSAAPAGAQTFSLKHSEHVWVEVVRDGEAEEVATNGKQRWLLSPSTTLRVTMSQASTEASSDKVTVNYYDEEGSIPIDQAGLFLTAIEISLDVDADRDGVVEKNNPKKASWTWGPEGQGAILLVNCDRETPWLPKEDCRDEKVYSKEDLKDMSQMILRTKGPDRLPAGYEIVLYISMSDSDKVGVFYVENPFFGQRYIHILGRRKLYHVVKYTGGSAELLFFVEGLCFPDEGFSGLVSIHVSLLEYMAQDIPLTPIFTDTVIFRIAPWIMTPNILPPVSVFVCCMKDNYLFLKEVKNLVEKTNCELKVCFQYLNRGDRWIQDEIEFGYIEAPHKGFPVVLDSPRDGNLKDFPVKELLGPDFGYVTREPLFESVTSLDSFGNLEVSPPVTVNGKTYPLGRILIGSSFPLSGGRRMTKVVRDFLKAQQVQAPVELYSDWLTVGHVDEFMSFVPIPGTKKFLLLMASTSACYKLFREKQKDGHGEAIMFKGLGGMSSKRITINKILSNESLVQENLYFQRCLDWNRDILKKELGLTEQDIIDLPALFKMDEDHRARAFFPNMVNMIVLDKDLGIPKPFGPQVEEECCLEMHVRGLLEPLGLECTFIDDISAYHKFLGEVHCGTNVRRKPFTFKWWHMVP

[2] = molecular target: Protein-arginine deiminase type-4 (Homo sapiens, UniProt Q9UM07); experiment: Inhibition of PAD4 (unknown origin) using Nalpha-benzoyl-L-arginine ethyl ester as substrate preincubated for 60 mins followed by substrate addition and measured after 90 mins by colorimetric analysis
Sequence of Protein-arginine deiminase type-4 (Q9UM07 whole entry): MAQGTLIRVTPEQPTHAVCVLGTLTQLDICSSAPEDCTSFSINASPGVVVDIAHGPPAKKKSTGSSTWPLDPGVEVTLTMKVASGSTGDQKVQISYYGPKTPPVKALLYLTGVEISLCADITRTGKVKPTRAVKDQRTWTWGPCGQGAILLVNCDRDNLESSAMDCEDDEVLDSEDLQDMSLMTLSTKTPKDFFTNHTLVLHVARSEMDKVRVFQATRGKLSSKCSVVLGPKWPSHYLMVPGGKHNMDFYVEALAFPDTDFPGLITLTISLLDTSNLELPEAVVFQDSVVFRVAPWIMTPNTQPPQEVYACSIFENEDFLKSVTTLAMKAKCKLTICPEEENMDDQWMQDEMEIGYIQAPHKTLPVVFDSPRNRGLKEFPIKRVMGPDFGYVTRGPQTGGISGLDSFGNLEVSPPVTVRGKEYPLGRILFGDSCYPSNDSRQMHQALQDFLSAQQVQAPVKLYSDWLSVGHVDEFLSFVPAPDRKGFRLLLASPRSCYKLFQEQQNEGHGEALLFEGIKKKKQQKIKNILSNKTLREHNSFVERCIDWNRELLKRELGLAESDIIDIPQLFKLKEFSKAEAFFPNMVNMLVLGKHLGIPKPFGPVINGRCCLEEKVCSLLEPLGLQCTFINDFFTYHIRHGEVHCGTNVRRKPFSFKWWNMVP

4T1 = experiment: Antiproliferative activity against mouse 4T1 cells assessed as inhibition of cell growth incubated for 48 hrs by MTT assay; assay type: functional, cell-based; conditions: 4T1, 48 h
MDA-MB-468 = experiment: Antiproliferative activity against human MDA-MB-468 cells assessed as inhibition of cell growth incubated for 48 hrs by MTT assay; assay type: functional, cell-based; conditions: MDA-MB-468, 48 h
[3] = Cytotoxicity against human MCF-10A cells assessed as inhibition of cell growth incubated for 48 hrs by MTT assay; assay type: toxicity, cell-based

Row | SMILES | IC50 [1] | IC50 [2] | IC50 (4T1) | IC50 (MDA-MB-468) | IC50 at 48 h [3]
1 | N=C(CCl)NCCC[C@H](NC(=O)[C@@H]1Cc2ccccc2CN1)C(=O)NCc1ccccc1 | 11600 nM | 6460 nM | 74 µM | > 100 µM | > 100 µM
2 | CCCCCc1nc(C(=O)N[C@@H](CCCNC(=N)CCl)C(=O)NCc2ccccc2)cc2c1[nH]c1ccccc12 | 3640 nM | 1750 nM | 8.07 µM | 7.45 µM | 8.01 µM
3 | Cn1c(-c2nc(C(=O)N[C@@H](CCCNC(=N)CCl)C(=O)NCc3ccccc3)cc3c2[nH]c2ccccc23)nc2ccccc21 | > 10000 nM | > 10000 nM | 3.77 µM | 4.82 µM | 5.3 µM
4 | COc1ccc(-c2nc(C(=O)N[C@@H](CCCNC(=N)CCl)C(=O)NCc3ccccc3)cc3c2[nH]c2ccccc23)cc1 | 3040 nM | 1700 nM | 7.48 µM | 4.2 µM | 6.27 µM
5 | N=C(CCl)NCCC[C@H](NC(=O)c1nc2ccccc2[nH]1)C(=O)NCc1ccccc1 | 5400 nM | 2920 nM | 72.1 µM | 29.2 µM | 29.7 µM
6 | N=C(CCl)NCCC[C@H](NC(=O)c1cc2c([nH]c3ccccc32)c(-c2nccc3ccccc23)n1)C(=O)NCc1ccccc1 | > 10000 nM | 14000 nM | 1.3 µM | 3.66 µM | 3.03 µM
7 | N#Cc1ccc(-c2nc(C(=O)N[C@@H](CCCNC(=N)CCl)C(=O)NCc3ccccc3)cc3c2[nH]c2ccccc23)cc1 | 3000 nM | 1610 nM | 18.3 µM | 4.36 µM | 11.1 µM
8 | COc1ccc(-c2nc(C(=O)N[C@@H](CCCNC(=N)CCl)C(=O)NCc3ccccc3)cc3c2[nH]c2ccccc23)cc1OC | 4590 nM | 1520 nM | 11.4 µM | 5.93 µM | 11.1 µM
9 | N=C(CCl)NCCC[C@H](NC(=O)c1cc2c([nH]c3ccccc32)c(-c2ccc(Cl)cc2)n1)C(=O)NCc1ccccc1 | 4050 nM | 1130 nM | 9.39 µM | 4.05 µM | 6.35 µM
10 | N=C(CCl)NCCC[C@H](NC(=O)c1cc2c([nH]c3ccccc32)c(-c2ccc3ccccc3n2)n1)C(=O)NCc1ccccc1 | > 10000 nM | 13200 nM | 0.88 µM | 3.05 µM | 2.77 µM
11 | N=C(CCl)NCCC[C@H](NC(=O)c1cc2c([nH]c3ccccc32)c(-c2cc3ccccc3cn2)n1)C(=O)NCc1ccccc1 | > 10000 nM | 24100 nM | 1.48 µM | 4.26 µM | 4.02 µM
12 | CC(C)c1ccc(-c2nc(C(=O)N[C@@H](CCCNC(=N)CCl)C(=O)NCc3ccccc3)cc3c2[nH]c2ccccc23)cc1 | > 10000 nM | 6890 nM | 4.28 µM | 2.95 µM | 3.52 µM
13 | N=C(CCl)NCCC[C@H](NC(=O)c1cc2c([nH]c3ccccc32)c(-c2cccc([N+](=O)[O-])c2)n1)C(=O)NCc1ccccc1 | > 10000 nM | 2030 nM | > 100 µM | 13.8 µM | 7.22 µM
14 | N=C(CCl)NCCC[C@H](NC(=O)c1cc2c([nH]c3ccccc32)c(-c2ccc3ccccc3c2)n1)C(=O)NCc1ccccc1 | > 10000 nM | 3240 nM | 5.8 µM | 4.23 µM | 9.73 µM
15 | CCCCCCCCCc1nc(C(=O)N[C@@H](CCCNC(=N)CCl)C(=O)NCc2ccccc2)cc2c1[nH]c1ccccc12 | 16800 nM | 14000 nM | 12.2 µM | 7.2 µM | 14.3 µM
16 | N=C(CCl)NCCC[C@H](NC(=O)c1cc2c([nH]c3ccccc32)c(-c2ncc[nH]2)n1)C(=O)NCc1ccccc1 | 10800 nM | 3120 nM | 6.67 µM | 6.94 µM | 12.4 µM
17 | N=C(CCl)NCCC[C@H](NC(=O)c1cc2c([nH]c3ccccc32)c(-c2ccncc2)n1)C(=O)NCc1ccccc1 | 4650 nM | 3430 nM | 45.2 µM | 85.3 µM | 83.8 µM

Now those with a lower IC50 [1], led by results:

Row | IC50 [1] | IC50 [2] | IC50 (4T1) | IC50 (MDA-MB-468) | SMILES | IC50 at 48 h [3]
18 | 350 nM | 700 nM | 99.9 µM | 117 µM | N=C(CCl)NCCC[C@H](NC(=O)c1c[nH]c2ccccc12)C(=O)NCc1ccccc1 | 120 µM
19 | 1000 nM | 960 nM | 19.8 µM | 7.99 µM | COC(Cc1nc(C(=O)N[C@@H](CCCNC(=N)CCl)C(=O)NCc2ccccc2)cc2c1[nH]c1ccccc12)OC | 11 µM
20 | 1270 nM | 620 nM | 12.2 µM | 4.88 µM | N=C(CCl)NCCC[C@H](NC(=O)c1cc2c([nH]c3ccccc32)c(C2CC2)n1)C(=O)NCc1ccccc1 | 4.37 µM
21 | 830 nM | 760 nM | 18.9 µM | 6.73 µM | Cc1nc(C(=O)N[C@@H](CCCNC(=N)CCl)C(=O)NCc2ccccc2)cc2c1[nH]c1ccccc12 | 18.2 µM
22 | 1030 nM | 710 nM | 10.1 µM | 4.42 µM | CC(C)Cc1nc(C(=O)N[C@@H](CCCNC(=N)CCl)C(=O)NCc2ccccc2)cc2c1[nH]c1ccccc12 | 5.16 µM
23 | 2320 nM | 1110 nM | 5.48 µM | 2.89 µM | N=C(CCl)NCCC[C@H](NC(=O)c1cc2c([nH]c3ccccc32)c(C2CCCCC2)n1)C(=O)NCc1ccccc1 | 2.76 µM
24 | 1140 nM | 1180 nM | 11.5 µM | 5.2 µM | CC(C)c1nc(C(=O)N[C@@H](CCCNC(=N)CCl)C(=O)NCc2ccccc2)cc2c1[nH]c1ccccc12 | 4.07 µM
25 | 2080 nM | 1150 nM | > 100 µM | > 100 µM | N=C(CCl)NCCC[C@H](NC(=O)c1ccc2nc[nH]c2c1)C(=O)NCc1ccccc1 | > 100 µM
26 | 1630 nM | 2150 nM | 16 µM | 6.18 µM | COc1cc(OC)c(-c2nc(C(=O)N[C@@H](CCCNC(=N)CCl)C(=O)NCc3ccccc3)cc3c2[nH]c2ccccc23)c(OC)c1 | 16.9 µM
27 | 1430 nM | 800 nM | 41.4 µM | 61.3 µM | N=C(CCl)NCCC[C@H](NC(=O)c1ccc2[nH]ccc2c1)C(=O)NCc1ccccc1 | 63.6 µM
28 | 2730 nM | 1760 nM | 23.5 µM | 14.3 µM | N=C(CCl)NCCC[C@H](NC(=O)c1cc2c(cn1)[nH]c1ccccc12)C(=O)NCc1ccccc1 | 29.4 µM
29 | 2260 nM | 1080 nM | 22.9 µM | 30.5 µM | N=C(CCl)NCCC[C@H](NC(=O)c1cc2c([nH]c3ccccc32)c(-c2ccc(O)cc2)n1)C(=O)NCc1ccccc1 | 51.8 µM
30 | 2100 nM | 1020 nM | 85.5 µM | 92 µM | N=C(CCl)NCCC[C@H](NC(=O)c1c[nH]c2ccc(F)cc12)C(=O)NCc1ccccc1 | 72.7 µM
31 | 1510 nM | 1890 nM | 13.9 µM | 5.87 µM | COc1cccc(OC)c1-c1nc(C(=O)N[C@@H](CCCNC(=N)CCl)C(=O)NCc2ccccc2)cc2c1[nH]c1ccccc12 | 14.7 µM
